In brackets after ≈: the same amount, converted by molar mass. Where two headings read alike, the source gives them in different places. Positions of bridges follow the written chain, without caps; N, C: chain ends. Non-standard residues stand in square brackets, D forms with d. Residues, ends and D or L forms follow the SMILES beside them. ξ: configuration not given here. *: point of attachment. Hexanoyl(4ξ-Me) = CCC(C)CCC(=O)*; dOrn = NCCC[C@@H](N)C(=O)O; Orn = NCCC[C@H](N)C(=O)O; Dap = NC[C@H](N)C(=O)O
Key:
Type in all cases: cell-based
[1] = tested on: P. aeruginosa M-120
Procedure: (§1) Minimum inhibitory concentrations (MICs) were determined by broth microdilution according to CLSI guidelines in triplicate. Blood agar plates were inoculated with glycerol stocks of E. coli ATCC 25922, E. coli MCR-1 (clinical isolate from Utrecht Medical Centre, NL), E. coli EQAS MCR-2 (clinical isolate from Wageningen University and Research, NL), K. pneumoniae ATCC 11228, K. pneumoniae ATCC 13883, K. pneumonia 2048 (clnical isolate from Vrije Universiteit Amsterdam Medical Centre, NL), K. pneumonia JS-123 (clinical isolate from Utrecht Medical […]
(§2) (clinical isolate from Rijksinstituut voor Volksgezondheid en Milieu, NL), A. baumannii MDR (clinical isolate from Vrije Universiteit Amsterdam Medical Centre, NL), P. aeruginosa ATCC 27853, P. aeruginosa PAO1, P. aeruginosa NRZ-03961 (Reference strain from Das Nationale Referenzzentrum für gramnegative Krankenhauserreger, DE), P. aeruginosa M-120 (clinical isolate from Leiden University Medical Centre, NL) and S. aureus USA300 (clinical isolate from Texas Children's Hospital, USA). E. coli 25922 MCR1 was grown on LB agar supplemented with kanamycin. The inoculated agar plates were then incubated for 16 h at 37°C . Individually grown colonies were subsequently used to inoculate 3 mL aliquots of TSB that were then incubated at 37°C with shaking at 220 rpm. In parallel, the lipopeptide antibiotics to be assessed were serially diluted with Mueller-Hinton broth (MHB) in polypropylene 96-well plates (50 µL in each well).
(§3) Once the OD600 of the bacterial suspensions reached 0.5, the bacteria were diluted with MHB (final concentration 2 × 10^5 CFU mL−1) and added to the microplates containing the test compounds (50 µL to each well, final volume: 100 µL). The well-plates were sealed with an adhesive membrane and after 16 h of incubation at 37°C with shaking at 220 rpm the wells were visually inspected for bacterial growth. MIC values reported are based on three technical replicates and defined as the lowest concentration of the compound that prevented visible growth of bacteria. […]

[2] = tested on: K. pneumoniae ATCC 13883
Procedure: as §1, §2, §3

[3] = tested on: P. aeruginosa ATCC 27853
Procedure: as §1, §2, §3

[4] = tested on: A. baumannii ATCC 17978
Procedure: as §1, §2, §3

[5] = tested on: E. coli ATCC 25922 MCR-1; details: Ec ATCC 25922 MCR-1; broth microdilution (CLSI), MHB, 16 h 37 °C, three technical replicates
Procedure: as §1, §2, §3

[6] = tested on: A. baumannii ATCC 17961
Procedure: as §1, §2, §3

[7] = tested on: E. coli ATCC 25922
Procedure: as §1, §2, §3

[8] = tested on: K. pneumoniae JS-123
Procedure: as §1, §2, §3

[9] = tested on: P. aeruginosa NRZ-03961
Procedure: as §1, §2, §3

[10] = tested on: A. baumannii MDR; details: Ab MDR; broth microdilution (CLSI), MHB, 16 h 37 °C, three technical replicates
Procedure: as §1, §2, §3

[11] = tested on: K. pneumoniae 2048
Procedure: as §1, §2, §3

[12] = tested on: E. coli MCR-1 (clinical isolate); details: Ec MCR-1; broth microdilution (CLSI), MHB, 16 h 37 °C, three technical replicates
Procedure: as §1, §2, §3

[13] = tested on: E. coli EQAS MCR-2; details: Ec EQAS MCR-2; broth microdilution (CLSI), MHB, 16 h 37 °C, three technical replicates
Procedure: as §1, §2, §3

[14] = tested on: A. baumannii 2018-006
Procedure: as §1, §2, §3

[15] = tested on: K. pneumoniae ATCC 11228
Procedure: as §1, §2, §3

[16] = tested on: P. aeruginosa PAO1
Procedure: as §1, §2, §3

[17] = tested on: S. aureus USA300
Procedure: as §1, §2, §3

CCC(C)CCC(=O)N[C@H](CC(N)=O)C(=O)N[C@H](Cc1ccc(O)cc1)C(=O)N[C@H](Cc1c[nH]c2ccccc12)C(=O)N[C@H](CCCN)C(=O)N[C@@H](CCCN)C(=O)NCC(=O)N[C@H](CCCN)C(=O)N[C@@H](Cc1c[nH]c2ccccc12)C(=O)N[C@H]1CNC(=O)[C@H](CO)NC(=O)CNC(=O)[C@H]([C@@H](C)CC)NC1=O (stereo partly shown) [Dap9-Brev (5), Dap9-Brevicidamide] ({Hexanoyl(4ξ-Me)}-[dN][dY][dW][dOrn][Orn]G[dOrn]W[Dap]IGS; lactam 9-C)
MIC ([1]; Pa M-120, broth microdilution (CLSI), MHB, 16 h 37 °C, three technical replicates): 16 µg/mL (≈ 10.6 µM)
MIC ([2]; Kp ATCC 13883, broth microdilution (CLSI), MHB, 16 h 37 °C, three technical replicates): 32 µg/mL (≈ 21.3 µM)
MIC ([3]; Pa ATCC 27853, broth microdilution (CLSI), MHB, 16 h 37 °C, three technical replicates): 8 µg/mL (≈ 5.32 µM)
MIC ([4]; Ab ATCC 17978, broth microdilution (CLSI), MHB, 16 h 37 °C, three technical replicates): 16 µg/mL (≈ 10.6 µM)
MIC [5]: 16 µg/mL (≈ 10.6 µM)
MIC ([6]; Ab ATCC 17961, broth microdilution (CLSI), MHB, 16 h 37 °C, three technical replicates): 4 µg/mL (≈ 2.66 µM)
MIC ([7]; Ec ATCC 25922, broth microdilution (CLSI), MHB, 2 × 10^5 CFU/mL, 16 h 37 °C, visual read-out, three technical replicates): 8 to 16 µg/mL
MIC ([8]; Kp JS-123, broth microdilution (CLSI), MHB, 16 h 37 °C, three technical replicates): 8 µg/mL (≈ 5.32 µM)
MIC ([9]; Pa NRZ-03961, broth microdilution (CLSI), MHB, 16 h 37 °C, three technical replicates): 16 to 32 µg/mL
MIC [10]: 8 µg/mL (≈ 5.32 µM)
MIC ([11]; Kp 2048, broth microdilution (CLSI), MHB, 16 h 37 °C, three technical replicates): 16 to 32 µg/mL
MIC [12]: 8 to 16 µg/mL
MIC [13]: 8 to 16 µg/mL
MIC ([14]; Ab 2018-006, broth microdilution (CLSI), MHB, 16 h 37 °C, three technical replicates): 8 µg/mL (≈ 5.32 µM)
MIC ([15]; Kp ATCC 11228, broth microdilution (CLSI), MHB, 16 h 37 °C, three technical replicates): 16 to 32 µg/mL
MIC ([16]; Pa PAO1, broth microdilution (CLSI), MHB, 16 h 37 °C, three technical replicates): 16 to 32 µg/mL
MIC ([17]; Sa USA300, broth microdilution (CLSI), MHB, 16 h 37 °C, three technical replicates): >64 µg/mL

CC[C@H](C)[C@@H]1NC(=O)[C@@H](NC(=O)[C@H](Cc2c[nH]c3ccccc23)NC(=O)[C@@H](CCCN)NC(=O)CNC(=O)[C@H](CCCN)NC(=O)[C@@H](CCCN)NC(=O)[C@@H](Cc2c[nH]c3ccccc23)NC(=O)[C@@H](Cc2ccc(O)cc2)NC(=O)[C@@H](CO)NC(=O)CCCCCC(C)C)[C@@H](C)NC(=O)CNC(=O)CNC(=O)[C@H](CC(N)=O)NC1=O [MeDap9-Lat (8), MeDap9-laterocidine]
MIC ([1]; M-120, 16 h): 1 µg/mL (≈ 0.623 µM)
MIC ([2]; ATCC 13883, 16 h): 1 to 2 µg/mL
MIC ([3]; ATCC 27853, 16 h): 0.5 µg/mL (≈ 0.312 µM)
MIC ([4]; ATCC 17978, 16 h): 2 µg/mL (≈ 1.25 µM)
MIC [5]: 1 µg/mL (≈ 0.623 µM)
MIC ([6]; ATCC 17961, 16 h): 2 µg/mL (≈ 1.25 µM)
MIC ([7]; ATCC 25922, 16 h): 1 µg/mL (≈ 0.623 µM)
MIC ([8]; JS-123, 16 h): 0.5 µg/mL (≈ 0.312 µM)
MIC ([9]; NRZ-03961, 16 h): 2 µg/mL (≈ 1.25 µM)
MIC [10]: 4 µg/mL (≈ 2.49 µM)
MIC ([11]; 2048, 16 h): 2 µg/mL (≈ 1.25 µM)
MIC [12]: 0.5 µg/mL (≈ 0.312 µM)
MIC [13]: 0.5 µg/mL (≈ 0.312 µM)
MIC ([14]; 2018-006, 16 h): 4 µg/mL (≈ 2.49 µM)
MIC ([15]; ATCC 11228, 16 h): 1 to 2 µg/mL
MIC ([16]; PAO1, 16 h): 2 µg/mL (≈ 1.25 µM)
MIC ([17]; USA300, 16 h): 32 µg/mL (≈ 20 µM)
